Measurements taken from patent US20090111856A1, “Parenteral Formulation Comprising Proton Pump Inhibitor Sterilized in its Final Container by Ionizing Radiation” (priority 2006, published 2009).

Test: Appearance of acid susceptible proton pump inhibitor powders before and after gamma sterilization
Format: physicochemical
Conditions: for Color change after radiation: gamma sterilization 25 kGy; for Appearance After sterilization (25 kGy) / Appearance Before sterilization: powder; for Appearance After sterilization (25 kGy): after gamma sterilization 25 kGy; for Appearance Before sterilization: before gamma sterilization
Method: In addition to esomeprazole sodium exemplified in Example 1, three other acid susceptible proton pump inhibitors, omeprazole sodium, pantoprazole sodium and lansoprazole, were gamma sterilized with a sterilizing dose of 25 kGy. The appearance of the powder was determined before and after gamma sterilization.

| SMILES | Color change after radiation | Appearance After sterilization (25 kGy) | Appearance Before sterilization |
| --- | --- | --- | --- |
| Cc1c(OCC(F)(F)F)ccnc1C[S+]([O-])c1nc2ccccc2[nH]1 (stereo not shown) [Lansoprazole] | no color change |  |  |
| COc1ccc2[n-]c([S+]([O-])Cc3ncc(C)c(OC)c3C)nc2c1.[Na+] (stereo not shown) [Omeprazole sodium] | some small (very minor) color changes | Very slightly yellow | White to off-white |
| COc1ccnc(C[S+]([O-])c2nc3ccc(OC(F)F)cc3[nH]2)c1OC (stereo not shown) [Pantoprazole sodium] | some small (very minor) color changes | Very slightly yellow | White to off-white |
